Results from US10131648B2, “Substituted benzothiophenyl derivatives as GPR40 agonists for the treatment of type II diabetes” (Janssen Pharmaceutica NV, priority 2014, dated 2018).

What was measured:
Male SD rats = experiment: Oral Glucose Tolerance Test; format: in vivo, rat; conditions: 10 mg/kg, thirty to forty min prior to oGTT (glucose, 2 g/kg, po), blood glucose AUC t=0 to t=120 minutes
Protocol: Male SD rats (200-250 g) were housed 2 per cage in a temperature-controlled room with a 12-hour light/dark cycle. They were allowed ad libitum access to water and fed with normal rodent chow. The night before the oral glucose tolerance test (oGTT), the rats were transferred to clean cages and fasted overnight. On the morning of the oGTT, the rats were weighed and randomized into groups based on fasted blood glucose and body weight. Rats were dosed with vehicle (0.5% methocel) or compounds (10 mg/kg, po) thirty to forty min prior to the oGTT (glucose, 2 g/kg, po). Blood was collected from the tail vein at 0, 10, 30, 60 and 120 minutes after glucose challenge to measure blood glucose; plasma was used to determine insulin levels. The area under the curve for blood glucose excursion was calculated from t=0 to t=120 minutes. Percent lowering of glucose was calculated from the AUC data with respect to the vehicle-treated group.

human GPR40 = human GPR40 (Homo sapiens (Human), UniProt O14842); experiment: GPR40 Calcium Flux Assay; format: cell-based; conditions: transfected HEK293 cells stably expressing human GPR40; Ca2+ mobilization; mean data; read-out: hGPR40 Ca^2+ Assay EC50
human GPR40, sequence (O14842 whole entry): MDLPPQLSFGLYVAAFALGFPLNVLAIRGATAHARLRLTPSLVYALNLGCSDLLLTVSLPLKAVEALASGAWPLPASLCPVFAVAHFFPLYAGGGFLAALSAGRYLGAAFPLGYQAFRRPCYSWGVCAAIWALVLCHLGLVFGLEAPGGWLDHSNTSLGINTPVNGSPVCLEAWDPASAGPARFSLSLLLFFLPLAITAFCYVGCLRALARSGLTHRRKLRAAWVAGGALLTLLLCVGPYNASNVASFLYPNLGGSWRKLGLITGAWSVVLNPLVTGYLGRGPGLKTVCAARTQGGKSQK

Compound	Percent Lowering of Glucose (AUC compound vs. AUC Vehicle) (Male SD rats)	EC50 (human GPR40)
CC#C[C@@H](CC(=O)O)c1ccc(OCc2ccc3scc(-c4ccccc4C)c3c2)cc1 [Cpd 2, (3S)-3-[4-[[3-(2-Methylphenyl)benzo[b]thiophen-5-yl]methoxy]phenyl]hex-4-ynoic acid]	72%	5 nM
CC#C[C@@H](CC(=O)O)c1ccc(OCc2ccc3scc(-c4ccc(OCCOC)cc4C)c3c2)cc1 [Cpd 16, (3S)-3-(4-((3-(4-(2-Methoxyethoxy)-2-methylphenyl)benzo[b]thiophen-5-yl)methoxy)phenyl)hex-4-ynoic acid]	76%	5 nM
CC#C[C@@H](CC(=O)O)c1ccc(OCc2ccc3scc(-c4ccc(C5CCNCC5)cc4C)c3c2)cc1 [Cpd 96, (3S)-3-(4-((3-(2-Methyl-4-(piperidin-4-yl)phenyl)benzo[b]thiophen-5-yl)methoxy)phenyl)hex-4-ynoic acid]		8 nM
CC#CC(CC(=O)O)c1ccc(OCc2ccc3scc(-c4ccccc4C)c3c2)cc1 (stereo not shown) [Cpd 97, 3-(4-((3-(2-Methylphenyl)benzo[b]thiophen-5-yl)methoxy)phenyl)hex-4-ynoic acid]		2 nM
CC#C[C@H](CC(=O)O)c1ccc(OCc2ccc3scc(-c4ccccc4C)c3c2)cc1 [Cpd 98, (3R)-3-[4-[[3-(2-Methylphenyl)benzo[b]thiophen-5-yl]methoxy]phenyl]hex-4-ynoic acid]		160 nM
